Source: patent publication US20260250251A1, “HETEROCYCLIC COMPOUNDS AS PI3Ka INHIBITORS” (Pikavation Therapeutics, Inc., priority 2022, published 2026)

Tests used:
[1] = tested on: T47D (PIK3CA H1047R) cells, pSer473 AKT; experiment: pS473 AKT assay in T47D cells; type: cell-based; conditions: Homo sapiens, treated 2 h, read-out: T47D_IC50
Method in brief: (§1)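 Cells exposed 2 h to a range of PI3Kα inhibitor concentrations, then paraformaldehyde-fixed and probed for pSer473 AKT with rabbit primary overnight at 4 °C and HRP anti-rabbit secondary. Chemiluminescent cell-based ELISA read-out; IC50 from concentration-response fitting.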

[2] = tested on: SKBR3 (PIK3CA WT) cells, pSer473 AKT; experiment: pS473 AKT assay in SKBR3 cells; type: cell-based; conditions: Homo sapiens, SK-BR-3, treated 2 h, read-out: SKBR3_IC50
Method in brief: as §1

| Structure (SMILES) | IC50 [1] [nM] | IC50 [2] [nM] |
| --- | --- | --- |
| Nc1n[nH]c2ccc(NC(=O)c3cc(F)cc(C(F)(F)F)c3)c(Oc3cncc(Cl)c3)c12 [Example 3, N-(3-Amino-4-((5-chloropyridin-3-yl)oxy)-1H-indazol-5-yl)-3-fluoro-5-(trifluoromethyl)benzamide] | < 1000 | ≥ 10000 |
| Nc1nn2c(=O)c3ccccc3c3cc(NC(=O)c4cc(F)cc(C(F)(F)F)c4)c(Oc4cc(F)ccc4Cl)c1c32 [Example 73, N-(4-Amino-3-(2-chloro-5-fluorophenoxy)-7-oxo-7H-pyrazolo[4,5,1-de]phenanthridin-2-yl)-3-fluoro-5-(trifluoromethyl)benzamide] | < 1000 | < 1000 |
| CNC(=O)N1CCCCC1C#Cc1cc(NC(=O)c2cc(F)cc(C(F)(F)F)c2)c(Oc2cc(F)ccc2Cl)c2c(N)nn(C)c12 (stereo not shown) [Example 80, 2-((3-Amino-4-(2-chloro-5-fluorophenoxy)-5-(3-fluoro-5-(trifluoromethyl)benzamido)-1-methyl-1H-indazol-7-yl)ethynyl)-N-methylpiperidine-1-carboxamide] | < 1000 | 1000 to 5000 |
| CC(=O)n1nc(N)c2c(Oc3cc(F)ccc3Cl)c(NC(=O)c3cc(F)cc(C(F)(F)F)c3)cc(Br)c21 [Example 82, N-(1-Acetyl-3-amino-7-bromo-4-(2-chloro-5-fluorophenoxy)-1H-indazol-5-yl)-3-fluoro-5-(trifluoromethyl)benzamide] | < 1000 | 1000 to 5000 |
| Cn1nc(N)c2c(Oc3cc(F)ccc3Cl)c(NC(=O)c3cc(F)cc(C(F)(F)F)c3)cc(C#CC3CCOC3)c21 (stereo not shown) [Example 41, N-(3-Amino-4-(2-chloro-5-fluorophenoxy)-1-methyl-7-((tetrahydrofuran-3-yl)ethynyl)-1H-indazol-5-yl)-3-fluoro-5-(trifluoromethyl)benzamide] | < 1000 | 1000 to 5000 |
| Nc1nn2c3c(cc(NC(=O)c4cc(F)cc(C(F)(F)F)c4)c(Oc4cc(F)ccc4Cl)c13)CNC2=O [Example 68, N-(2-Amino-3-(2-chloro-5-fluorophenoxy)-8-oxo-7,8-dihydro-6H-pyrazolo[4,5,1-ij]quinazolin-4-yl)-3-fluoro-5-(trifluoromethyl)benzamide] | < 1000 | < 1000 |
| Nc1n[nH]c2c(Br)cc(NC(=O)c3cc(F)cc(C(F)(F)F)c3)c(Oc3cc(F)ccc3Cl)c12 [Example 11, N-(3-Amino-7-bromo-4-(2-chloro-5-fluorophenoxy)-1H-indazol-5-yl)-3-fluoro-5-(trifluoromethyl)benzamide] | < 1000 | < 1000 |
| Cn1nc(N)c2c(Oc3cc(F)ccc3Cl)c(NC(=O)c3cc(F)cc(C(F)(F)F)c3)cc(CCC#N)c21 [Example 59, N-(3-Amino-4-(2-chloro-5-fluorophenoxy)-7-(2-cyanoethyl)-1-methyl-1H-indazol-5-yl)-3-fluoro-5-(trifluoromethyl)benzamide] | < 1000 | < 1000 |
| Nc1nn2c3c(cc(NC(=O)c4cc(F)cc(C(F)(F)F)c4)c(Oc4cc(F)ccc4Cl)c13)CNC(=O)C2 [Example 36, N-(2-Amino-3-(2-chloro-5-fluorophenoxy)-8-oxo-6,7,8,9-tetrahydro-[1,4]diazepino[6,7,1-hi]indazol-4-yl)-3-fluoro-5-(trifluoromethyl)benzamide] | < 1000 | < 1000 |
| N#CCCn1nc(N)c2c(Oc3cc(F)ccc3Cl)c(NC(=O)c3cc(F)cc(C(F)(F)F)c3)cc(Cl)c21 [Example 34, N-(3-Amino-7-chloro-4-(2-chloro-5-fluorophenoxy)-1-(2-cyanoethyl)-1H-indazol-5-yl)-3-fluoro-5-(trifluoromethyl)benzamide] | < 1000 | 1000 to 5000 |
| Cn1nc(N)c2c(Oc3cc(F)ccc3Cl)c(NC(=O)c3cc(F)cc(C(F)(F)F)c3)ccc21 [Example 7, N-(3-amino-4-(2-chloro-5-fluorophenoxy)-1-methyl-1H-indazol-5-yl)-3-fluoro-5-(trifluoromethyl)benzamide] | < 1000 | < 1000 |
| Cn1nc(N)c2c(Oc3cc(F)ccc3Cl)c(NC(=O)c3cccc(C(F)(F)F)c3)cc(Cl)c21 [Example 61, N-(3-Amino-7-chloro-4-(2-chloro-5-fluorophenoxy)-1-methyl-1H-indazol-5-yl)-3-(trifluoromethyl)benzamide] | < 1000 | 5000 to 10000 |
| Cn1nc(N)c2c(Oc3cc(F)ccc3Cl)c(NC(=O)c3cc(F)cc(C(F)(F)F)c3)cc(/C=C/C#N)c21 [Example 57, (E)-N-(3-amino-4-(2-chloro-5-fluorophenoxy)-7-(2-cyanovinyl)-1-methyl-1H-indazol-5-yl)-3-fluoro-5-(trifluoromethyl)benzamide] | < 1000 | < 1000 |
| Nc1n[nH]c2ccc(NC(=O)c3cc(F)cc(C(F)(F)F)c3)c(Nc3cc(F)ccc3Cl)c12 [Example 4, N-(3-Amino-4-((2-chloro-5-fluorophenyl)amino)-1H-indazol-5-yl)-3-fluoro-5-(trifluoromethyl)benzamide] | < 1000 | 5000 to 10000 |
